Test [1] relates to Septoria tritici. In words: Growth inhibition in nutrient broth, Septoria tritici (leaf blotch), photometric. The class given is cell-based. The conditions noted are these: Zymoseptoria tritici, PDB broth, 24 C, 72 hrs, read-out: control of fungal infection, Septoria tritici.
Test [2] deals with Pythium ultimum. In words: Growth inhibition in potato dextrose broth, Pythium ultimum (damping off), photometric. The class given is cell-based. The following applies: Globisporangium ultimum, 24° C., 48 hours, read-out: control of fungal infection, Pythium ultimum. The procedure: The compounds were tested in a leaf disk assay, with methods described below. The test compounds were dissolved in DMSO and diluted into water to 200 ppm. In the case of the test on Pythium ultimum, they were dissolved in DMSO and diluted into water to 20 ppm. Pythium ultimum (Damping off): Mycelial fragments of the fungus, prepared from a fresh liquid culture, were mixed into potato dextrose broth. A solution of the test compound in dimethyl sulphoxide was diluted with water to 20 ppm then placed into a 96-well microtiter plate and the nutrient broth containing the fungal spores was added. The test plate was incubated at 24° C. and the inhibition of growth was determined photometrically after 48 hours.

The subject of test [3] is Plasmopara viticola. Kind of test: Leaf disk assay, Plasmopara viticola (downy mildew of grapevine), preventive. The conditions noted are these: foliar, 168 h, grapevine leaf disks, assessed seven days after inoculation, read-out: control of fungal infection, Plasmopara viticola. The class given is in vivo.
Test [4] has as its system Phytophthora infestans. In words: whole plant or invertebrate. The following applies: in Solanum lycopersicum, foliar, 96 h, read-out: control of fungal infection, Phytophthora infestans. The class given is in vivo.
In test [5] the test system is Erysiphe graminis f.sp. tritici. In words: Leaf disk assay, Erysiphe graminis f.sp. tritici (wheat powdery mildew), preventive. The class given is in vivo. The conditions noted are these: Blumeria graminis, foliar, 96 h, wheat leaf segments, assessed four days after inoculation, read-out: control of fungal infection, Erysiphe graminis f.sp. tritici. Here is the method: The compounds were tested in a leaf disk assay, with methods described below. The test compounds were dissolved in DMSO and diluted into water to 200 ppm. In the case of the test on Pythium ultimum, they were dissolved in DMSO and diluted into water to 20 […] graminis f.sp. tritici (wheat powdery mildew): Wheat leaf segments were placed on agar in a 24-well plate and sprayed with a solution of the test compound. After allowing to dry completely, for between 12 and 24 hours, the leaf disks were inoculated with a spore suspension of the fungus. After appropriate incubation the activity of a compound was assessed four days after inoculation as preventive fungicidal activity.

Test [6] concerns Septoria nodorum. In words: Leaf disk assay, Septoria nodorum (wheat glume blotch), preventive. The class given is in vivo. The conditions noted are these: Parastagonospora nodorum, foliar, 96 h, wheat leaf segments, assessed four days after inoculation, read-out: control of fungal infection, Septoria nodorum.

Molecules are shown by their SMILES. Where only a bound is given, the exact number is not on record here.

As for `CSC(Oc1cc2cc(C#C[Si](C)(C)C)cnc2cc1F)C(=O)NC(C)(C)C` (centres unmarked) [Example 101], the inhibition of growth at 60 ppm in test [1] was at least 60%.
Still for that read-out and setting: then `C#CC(C)(C)NC(=O)C(Oc1cc(C)c2ncc(C#CC)cc2c1)SC` (centres unmarked) [Example 41], with at least 60%.
With `COCCC#CC(C)(C)NC(=O)C(Oc1ccc2ncc(C#C[Si](C)(C)C)cc2c1)SC` (centres unmarked) [Example 100], in test [2], the inhibition of growth at 20 ppm was at least 60%. Moreover, the pest or weed control at 200 ppm in test [3], in test [4] and in test [5] was at least 60% each time. Further, the inhibition of growth at 60 ppm in test [1] is at least 60%.
Turning to `COCC#CC(C)(C)NC(=O)C(Oc1cc(Cl)c2ncc(C#CCF)cc2c1)SC` (centres unmarked) [Example 227], the pest or weed control at 200 ppm in test [3], in test [4] and in test [5] was at least 60% each time.
In the case of `COCC(C)(C#N)NC(=O)C(Oc1cc(C)c2ncc(C#CCO)cc2c1)SC` (centres unmarked) [Example 27], the inhibition of growth at 20 ppm in test [2] is at least 60%. The pest or weed control at 200 ppm in test [3] and in test [5] was at least 60% each time.
Consider `C#Cc1cnc2ccc(OC(OC)C(=O)NC(C)(C)CO)cc2c1` (centres unmarked) [Example 220], for which the inhibition of growth at 20 ppm in test [2] was at least 60%. Further, the pest or weed control at 200 ppm in test [3], in test [4] and in test [5] was at least 60% each time. Further, the inhibition of growth at 60 ppm in test [1] is at least 60%.
Turning to `COCC#Cc1cnc2ccc(OC(SC)C(=O)NC(C)(C#N)COC)cc2c1` (centres unmarked) [Example 43], the inhibition of growth at 20 ppm in test [2] is at least 60%. The pest or weed control at 200 ppm in test [4] and in test [5] was at least 60% each time.
For `CC#CC(C)(C)NC(=O)C(Oc1cc(C)c2ncc(C#CCOC)cc2c1)SC` (centres unmarked) [Example 35], the pest or weed control at 200 ppm in test [3] was at least 60%. The inhibition of growth at 60 ppm in test [1] was at least 60%.
`COCC#CC(C)(C)NC(=O)C(Oc1cc2cc(C#C[Si](C)(C)C)cnc2cc1F)SC` (centres unmarked) [Example 58]: the pest or weed control at 200 ppm in test [5] is at least 60%. For the same compound, the inhibition of growth at 60 ppm in test [1] is at least 60%.
Consider `CC#Cc1cnc2c(C)cc(OC(SC)C(=O)NC(C)(C)C#CC)cc2c1` (centres unmarked) [Example 40], for which the inhibition of growth at 60 ppm in test [1] was at least 60%.
Still for that read-out and setting: then `CCOCC(C)(C)NC(=O)C(Oc1cc(C)c2ncc(C#C[Si](C)(C)C)cc2c1)SC` (centres unmarked) [Example 89], with at least 60%.
Turning to `C#Cc1cnc2ccc(OC(SC)C(=O)NC3(C)CSC3)cc2c1` (centres unmarked) [Example 224], the inhibition of growth at 20 ppm in test [2] was at least 60%. Further, in test [1], the inhibition of growth at 60 ppm is at least 60%.
Take `C#Cc1cnc2c(F)c(F)c(OC(SC)C(=O)NC(C)(C#N)COC)cc2c1` (centres unmarked) [Example 216]: the pest or weed control at 200 ppm in test [3] and in test [5] was at least 60% in each case. Also, in test [1], the inhibition of growth at 60 ppm is at least 60%.
With `CC#CC(C)(C)NC(=O)C(Oc1ccc2ncc(C#CCO)cc2c1)SC` (centres unmarked) [Example 50], the inhibition of growth at 20 ppm in test [2] is at least 60%. The pest or weed control at 200 ppm in test [3] and in test [4] was at least 60% each time.
With `C#CC(C)(C)NC(=O)C(Oc1ccc2ncc(C#CCOC)cc2c1)SC` (centres unmarked) [Example 46], the inhibition of growth at 20 ppm in test [2] was at least 60%. For the same compound, the pest or weed control at 200 ppm in test [4] and in test [5] was at least 60% in each case. The inhibition of growth at 60 ppm in test [1] was at least 60%.
Turning to `COCC(C)(COC)NC(=O)C(Oc1ccc2ncc(C#C[Si](C)(C)C)cc2c1)SC` (centres unmarked) [Example 81], the pest or weed control at 200 ppm in test [4] and in test [6] was at least 60% throughout. Further, the inhibition of growth at 60 ppm in test [1] is at least 60%.
`CCC#CC(C)(C)NC(=O)C(Oc1ccc2ncc(C#C[Si](C)(C)C)cc2c1)SC` (centres unmarked) [Example 116]: the pest or weed control at 200 ppm in test [3], in test [4] and in test [5] was at least 60% each time. Further, the inhibition of growth at 60 ppm in test [1] was at least 60%.
For the compound `CSCC(C)(C#N)NC(=O)C(Oc1ccc2ncc(C#C[Si](C)(C)C)cc2c1)SC` (centres unmarked) [Example 59], the pest or weed control at 200 ppm in test [4] was at least 60%. Moreover, the inhibition of growth at 60 ppm in test [1] is at least 60%.
For `COC(Oc1ccc2ncc(C#C[Si](C)(C)C)cc2c1)C(=O)NC(C)(C)C` (centres unmarked) [Example 80], the pest or weed control at 200 ppm in test [3], in test [4] and in test [5] was at least 60% in each case. The inhibition of growth at 60 ppm in test [1] was at least 60%.
For `CC#Cc1cnc2c(C)cc(OC(SC)C(=O)NC(C)(C)C)cc2c1` (centres unmarked) [Example 37], in test [1], the inhibition of growth at 60 ppm was at least 60%.
Consider `CC#Cc1cnc2c(C)cc(OC(SC)C(=O)NC(C)(C#N)COC)cc2c1` (centres unmarked) [Example 38], for which, in test [2], the inhibition of growth at 20 ppm was at least 60%. Also, in test [5], the pest or weed control at 200 ppm is at least 60%. The inhibition of growth at 60 ppm in test [1] is at least 60%.
Consider `COCC#Cc1cnc2c(C)cc(OC(SC)C(=O)NC(C)(C#N)COC)cc2c1` (centres unmarked) [Example 33], for which the inhibition of growth at 20 ppm in test [2] is at least 60%. The pest or weed control at 200 ppm in test [4] was at least 60%. Further, in test [1], the inhibition of growth at 60 ppm was at least 60%.
For the compound `CCC#CC(C)(C)NC(=O)C(Oc1cc(Cl)c2ncc(C#C[Si](C)(C)C)cc2c1)SC` (centres unmarked) [Example 119], in test [3], the pest or weed control at 200 ppm is at least 60%. In test [1], the inhibition of growth at 60 ppm was at least 60%.
`CC#Cc1cnc2c(C)cc(OC(SC)C(=O)NC(C)(C)C#CCOC)cc2c1` (centres unmarked) [Example 39]: the pest or weed control at 200 ppm in test [3] and in test [4] was at least 60% throughout. In test [1], the inhibition of growth at 60 ppm was at least 60%.
`C#Cc1cnc2ccc(OC(SC)C(=O)NC(C)(C#C)C=O)cc2c1` (centres unmarked) [Example 161]: in test [2], the inhibition of growth at 20 ppm was at least 60%. Further, the pest or weed control at 200 ppm in test [3] and in test [4] was at least 60% each time.
Take `CCC(C)(C)NC(=O)C(Oc1ccc2ncc(C#C[Si](C)(C)C)cc2c1)SC` (centres unmarked) [Example 91]: the pest or weed control at 200 ppm in test [3] and in test [5] was at least 60% each time. In addition, the inhibition of growth at 60 ppm in test [1] is at least 60%.
Turning to `C#CC(C)(C)NC(=O)C(Oc1cc(C)c2ncc(C#CCOC)cc2c1)SC` (centres unmarked) [Example 36], the inhibition of growth at 20 ppm in test [2] is at least 60%. The inhibition of growth at 60 ppm in test [1] was at least 60%.
As to `C#Cc1cnc2ccc(OC(SC)C(=O)N(C)C3(CO)CCC3)cc2c1` (centres unmarked) [Example 154], the inhibition of growth at 20 ppm in test [2] is at least 60%.
`C#CCOCC1(NC(=O)C(Oc2ccc3ncc(C#C)cc3c2)SC)CCC1` (centres unmarked) [Example 152]: the pest or weed control at 200 ppm in test [3], in test [4], in test [6] and in test [5] was at least 60% in each case. The inhibition of growth at 60 ppm in test [1] was at least 60%.
For the compound `C#Cc1cnc2ccc(OC(SC)C(=O)NC3(C=O)CCC3)cc2c1` (centres unmarked) [Example 150], the pest or weed control at 200 ppm in test [3], in test [4], in test [6] and in test [5] was at least 60% in each case.
In the case of `C#Cc1cnc2ccc(OC(OC)C(=O)NC(C)(C)C=O)cc2c1` (centres unmarked) [Example 221], the inhibition of growth at 20 ppm in test [2] was at least 60%. Besides, the pest or weed control at 200 ppm in test [3], in test [4] and in test [5] was at least 60% in each case. Also, in test [1], the inhibition of growth at 60 ppm is at least 60%.
Regarding `COCC(C)(C#N)NC(=O)C(Oc1cc2cc(C#C[Si](C)(C)C)cnc2cc1F)SC` (centres unmarked) [Example 5], the pest or weed control at 200 ppm in test [3], in test [4] and in test [5] was at least 60% in each case. For the same compound, the inhibition of growth at 60 ppm in test [1] was at least 60%.
Take `CSC(Oc1cc2cc(C#C[Si](C)(C)C)cnc2c(F)c1F)C(=O)NC(C)(C)C` (centres unmarked) [Example 217]: the inhibition of growth at 60 ppm in test [1] was at least 60%.
On the same count and under the same terms, then `CSC(Oc1cc(Cl)c2ncc(C#C[Si](C)(C)C)cc2c1)C(=O)NC(C)(C)C#CCCCCl` (centres unmarked) [Example 120], with at least 60%.
Same read-out and setting: next, `COCOCC(C)(C)NC(=O)C(Oc1cc(C)c2ncc(C#C[Si](C)(C)C)cc2c1)SC` (centres unmarked) [Example 60]: at least 60%.
In the case of `COCC(C)(C#N)NC(=O)C(Oc1ccc2ncc(C#CCO)cc2c1)SC` (centres unmarked) [Example 52], the inhibition of growth at 20 ppm in test [2] was at least 60%. The pest or weed control at 200 ppm in test [4] is at least 60%.
For `COCC#Cc1cnc2c(C)cc(OC(SC)C(=O)NC(C)(C)C)cc2c1` (centres unmarked) [Example 32], the inhibition of growth at 60 ppm in test [1] was at least 60%.
`C#Cc1cnc2ccc(OC(SC)C(=O)NC(C)(C#N)CF)cc2c1` (centres unmarked) [Example 92]: in test [2], the inhibition of growth at 20 ppm is at least 60%.
Take `C#CC(C)(C)NC(=O)C(Oc1ccc2ncc(C#CCO)cc2c1)SC` (centres unmarked) [Example 51]: in test [2], the inhibition of growth at 20 ppm was at least 60%. In addition, the pest or weed control at 200 ppm in test [3] and in test [4] was at least 60% each time.

These data come from US8415272B2, “Quinoline derivatives and their use as fungicides” (Syngenta Crop Protection LLC, priority 2008, dated 2013).
